The numbers were not newly measured in US20240016441A1 (priority 2023, published 2024), which cites them from elsewhere.

The structures appear in SMILES notation. Where two headings read alike, the source gives them in different places.

The test system of one series is BDNF. To be noted: male athletes, p<0.05.
Series [1] concerns dopaminergic neurons. To be noted: related to a glyoxalase pathway.
For series [2], the system named is dopaminergic neurons. To be noted: neurons treated with L-lactate.
The conditions of series [3]: for plasma L-lactate to brain metabolism: occipital-parietal lobe.
The next series deals with glabellar reflex. As to conditions: successful levodopa treatment, patients with Parkinson's disease.
The conditions of series [4]: in vivo.
For series [5] the following is noted: 84 mEq/L at 5 ml*kg^-1*h^-1 for 3.5 hours, single anesthetized patient.
For series [6] the following is noted: traumatic brain injury patients and healthy controls.

Regarding `CC(O)C(=O)[O-].[Na+]` (racemic) [sodium DL-lactate], the BDNF blood concentration entry in the series on BDNF is reported as “increase”.
`C[C@@H](O)C(=O)O` [D-lactate]: in the series on dopaminergic neurons [1], the “survival of dopaminergic neurons” value is recorded as “increase survival of dopaminergic neurons”.
For `C[C@H](O)C(=O)O` [L-lactate], in the series on dopaminergic neurons [2], the “effect on dopaminergic neurons” value is “apoptosis of dopaminergic neurons”. Also, the “plasma L-lactate to brain metabolism” value is recorded as 10% in series [3] (basal plasma L-lactate concentrations of ~1.0 mmol/L) and no more than 60% in series [3] (high physiologic plasma concentrations).
`N[C@@H](Cc1ccc(O)c(O)c1)C(=O)O` [levodopa]: the glabellar reflex result with glabellar reflex is recorded as “reversal of the glabellar reflex”.
As to `C[C@H](O)C(=O)[O-].[Na+]` [sodium L-lactate], the adverse effects entry in series [4] is listed as “without any adverse effects”. Besides, the vital signs result in series [5] was “without any significant change in vital signs”.
On to `[13CH3]C(O)C(=O)[O-].[Na+]` [sodium [3-^13C] L-lactate], for which the adverse effects entry in series [3] (350 mmol/L, priming dose then continuous infusion for ~120 min) is given as “without any adverse effects”. In addition, in series [6], the complications result was “without serious complications” and the “peak L-lactate blood concentration” value is given as 10.6 mg/dL.
